Laboratory results: ChEMBL document CHEMBL1130833, “Inhibition of electric eel acetylcholinesterase by porphin compounds” (Bioorg Med Chem Lett, 1998)

Biological target: Acetylcholinesterase (Electrophorus electricus, UniProt O42275)
Assay: Compound was evaluated for inhibitory constant for the electric eel Acetylcholinesterase (AChE)

Sequence of Acetylcholinesterase (O42275 whole entry): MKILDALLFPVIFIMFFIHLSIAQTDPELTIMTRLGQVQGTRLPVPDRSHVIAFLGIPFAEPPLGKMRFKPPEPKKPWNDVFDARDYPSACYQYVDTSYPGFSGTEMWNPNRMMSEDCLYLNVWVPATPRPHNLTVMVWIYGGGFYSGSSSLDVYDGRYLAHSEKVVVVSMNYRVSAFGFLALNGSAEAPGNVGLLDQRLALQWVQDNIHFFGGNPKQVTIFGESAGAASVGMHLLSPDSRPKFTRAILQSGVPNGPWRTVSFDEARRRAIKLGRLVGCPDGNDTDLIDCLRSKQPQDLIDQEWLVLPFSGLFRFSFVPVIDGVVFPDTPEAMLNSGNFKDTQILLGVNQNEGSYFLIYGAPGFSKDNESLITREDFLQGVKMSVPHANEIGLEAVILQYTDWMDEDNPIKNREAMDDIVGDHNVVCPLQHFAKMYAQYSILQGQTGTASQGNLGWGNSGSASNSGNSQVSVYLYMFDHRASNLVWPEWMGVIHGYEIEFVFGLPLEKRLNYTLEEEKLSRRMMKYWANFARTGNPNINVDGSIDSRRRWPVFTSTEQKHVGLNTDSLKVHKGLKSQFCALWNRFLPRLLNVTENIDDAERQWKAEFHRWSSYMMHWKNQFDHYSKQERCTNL

Row | Compound | Ki (tested as the Zn salt or complex) [nM] | Ki [nM]
1 | C1=Cc2nc1c(-c1ccccc1)c1ccc([nH]1)c(-c1ccccc1)c1nc(c(-c3ccccc3)c3ccc([nH]3)c2-c2ccccc2)C=C1 | 5390 | 
2 | Fc1cccc(F)c1-c1c2nc(c(-c3c(F)cccc3F)c3ccc([nH]3)c(-c3c(F)cccc3F)c3ccc([nH]3)c(-c3c(F)cccc3F)c3nc1C=C3)C=C2 |  | 12
3 | Fc1ccc(-c2c3nc(c(-c4ccc(F)cc4F)c4ccc([nH]4)c(-c4ccc(F)cc4F)c4ccc([nH]4)c(-c4ccc(F)cc4F)c4nc2C=C4)C=C3)c(F)c1 |  | 5
